16 compounds from patent US6521623B1, “N,N'-disubstituted benzimidazolone derivatives with affinity at the serotonin and dopamine receptors” (Boehringer Ingelheim Pharma KG, priority 2000, dated 2003) can be followed below.

Like-named read-outs stand apart in the source and are kept apart here.

Experiment [1] has as its target T1, 5-HT1A (Homo sapiens, UniProt P08908).
T1 sequence (P08908 1-422): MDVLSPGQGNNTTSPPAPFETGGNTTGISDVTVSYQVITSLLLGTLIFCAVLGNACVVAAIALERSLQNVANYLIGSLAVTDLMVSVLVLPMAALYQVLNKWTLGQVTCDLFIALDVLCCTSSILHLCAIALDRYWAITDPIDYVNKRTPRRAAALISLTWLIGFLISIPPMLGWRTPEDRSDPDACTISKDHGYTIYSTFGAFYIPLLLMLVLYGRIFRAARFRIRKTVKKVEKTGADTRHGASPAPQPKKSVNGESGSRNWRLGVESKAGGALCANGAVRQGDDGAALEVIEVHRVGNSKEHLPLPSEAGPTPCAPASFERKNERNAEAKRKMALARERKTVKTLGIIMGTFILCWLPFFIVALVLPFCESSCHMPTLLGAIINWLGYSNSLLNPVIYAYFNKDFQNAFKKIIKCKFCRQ
Description: 5HT1A Radioligand Receptor Binding Assay ([3H]-8-OH-DPAT, CHO cell membranes). Also on record: expressed in transfected cells; host or cells: CHO cells. The conditions noted are these: for inhibition at 0.1 µM: compound 10^−7 M, singlicate, [3H]-8-OH-DPAT 0.6-0.7 nM. In outline:
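CHO-cell membranes expressing human 5-HT1A incubated with [3H]-8-OH-DPAT (0.6-0.7 nM) for 60 minutes at 27° C, filtered and scintillation counted; non-specific binding defined with 10^−5 M 5-HT. Compounds tested singly at 10^−7 M as % of control specific binding; IC50 from one-site nonlinear regression.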

The target of experiment [2] is T1, 5-HT1A. Description: 5-HT1 Functional Assay (cAMP) in CHO/5-HT1A cells. The experiment is classed as cell-based. Also on record: expressed in transfected cells; host or cells: CHO/5-HT1A cells. Here is the method: 5-HT1 Functional Assay (cAMP)
CHO/5-HT1A cells were random seeded at a density of about 200,000/well in 24 well plates the day prior to the experiment. On the day of the experiment, cells were pretreated for 15 minutes at 37° C. with 500 μM isobutylmethylxantine (IBMX) dissolved in culture medium without serum. Wells were then divided in different groups in duplicate as follows: control, 10 μM FSK, 10 μM FSK+1 μM 5-HT as positive standard and 10 μM FSK+10 μM of the different compound under evaluation. Sample solutions were added and incubated for additional 15 minutes at 37° C. After incubation, the medium was aspirated and the reaction stopped by adding 200 μl of lysis buffer. Plates were shaken for 5 minutes, then the lysate was removed and samples were stored at 4° C. until the day of the assay. For the cAMP evaluation, samples were properly diluted and the cAMP content was measured by an enzyme immunoassay system.

Experiment [3] deals with 5-HT2A (Mus musculus, UniProt P35363). Description: 5-HT2 Functional Assay (PI Turnover) in cerebral cortex miniprisms. The experiment is classed as biochemical. The following applies: 10 μM compound, inhibition of PI turnover accumulation induced by 100 μM 5-HT. Here is the method:
5-H T2 Functional Assay (PI Turnover)
Cross-chopped miniprisms (350×350 μm) were prepared from mouse whole cerebral cortices and incubated for 60 minutes at 37° C. in Krebs-Henseleit buffer containing 2 g/l glucose.
Cerebral cortex miniprisms were distributed in vials and incubated for 30 minutes with approximately 170 nM [^3H]-myoinositol (10-20 Ci/mmol) and […] lithium chloride. Samples were divided in different groups in triplicate: control, 100 μM 5-HT, 10 and 30 μM flibanserin+100 μM 5-HT, as standards, and 10 μM of the different compound under investigation+100 μM 5-HT. When 5-HT was added the incubation continued for 45 minutes. Compounds under investigation and flibanserin were added 10 minutes before dispensing 5-HT. Incubation was terminated by the addition of 940 μl chloroform-methanol (1:2 v/v). Further aliquots of chloroform (310 μl) and water (310 μl) were added and labeled inositol phosphates (1 Ps) were extracted from the aqueous phase by ion exchange chromatography using Dowex resin in the formate form. After addition of 10 ml of PicoFluor 40 scintillation cocktail (Packard), the radioactivity present in an aliquot (400 μl) of the aqueous extract was counted by liquid scintillation spectrometry.

Experiment [4] deals with T2, 5-HT2A (Rattus norvegicus, UniProt P14842).
T2 construct: Cerebral frontal cortex was homogenized in 10 volumes of ice cold 0.32 M sucrose; from tissue; host or cells: rat cerebral frontal cortex membranes
Nature of the experiment: 5-HT2A Radioligand Receptor Binding Assay ([3H]-Ketanserin, cerebral frontal cortex membranes). The following applies: 0.5 nM [3H]-Ketanserin. The method, then:
5-HT2A Radioligand Receptor Binding Assay
Rats (male Sprague-Dawley, 200-250 g) were used. Cerebral frontal cortex was homogenized in 10 volumes of ice cold 0.32 M sucrose in 5 mM Tris-HCl ([…]) buffer. After centrifugation of the homogenate (1,000×g for 10 minutes) the supernatant was then recentrifuged at 48,000×g for 15 minutes. The resulting pellet was gently homogenized in an equal volume of 50 mM Tris-HCl buffer (pH 7.4) and incubated at 37° C. for 10 minutes. Membranes were then collected by centrifugation as above described and finally resuspended in 10 volumes of 50 mM Tris-HCl buffer (pH 7.4).
For displacement experiments membranes (980 μl) were diluted in 50 mM Tris-HCl buffer (pH 7.4) to a final concentration of 1:100 (w/v); the tissue suspension was then incubated at 37° C. for 10 minutes in a final volume of 1 ml in the presence of 0.5 nM [^3H]-Ketanserin. Non-specific binding was determined by incubating similar samples with unlabelled methysergide (100 μM). After incubation, samples prepared in a 24 wells cell culture cluster (Costar) were rapidly filtered by Inotech Cell Harvester (IH 201 filters). The filters were washed three times with 2 ml ice-cold Tris-HCl buffer and placed in polyethylene vials, then 4 ml of Filter Count scintillation cocktail (Packard) were added. The radioactivity present was counted by liquid scintillation spectrometry.
The affinity values (IC50) for the compounds were obtained by a nonlinear least squares regression analysis on the basis of a one binding site model.

The target in experiment [5] is T3, D4 human receptors (Homo sapiens, UniProt P21917).
T3 construct: expressed in transfected cells; host or cells: CHO cells
T3 sequence (P21917 1-419): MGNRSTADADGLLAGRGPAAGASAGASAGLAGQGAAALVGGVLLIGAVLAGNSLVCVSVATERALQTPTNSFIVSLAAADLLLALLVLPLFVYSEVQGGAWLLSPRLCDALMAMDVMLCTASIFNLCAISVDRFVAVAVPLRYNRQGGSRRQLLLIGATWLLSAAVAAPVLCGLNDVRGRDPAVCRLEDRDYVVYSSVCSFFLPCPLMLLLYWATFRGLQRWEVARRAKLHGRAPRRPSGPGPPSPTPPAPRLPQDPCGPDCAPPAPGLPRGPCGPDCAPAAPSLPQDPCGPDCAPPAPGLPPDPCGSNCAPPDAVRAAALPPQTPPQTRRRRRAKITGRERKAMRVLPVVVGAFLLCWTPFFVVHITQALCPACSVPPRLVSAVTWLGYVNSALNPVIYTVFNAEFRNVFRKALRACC
Description: D4 Radioligand Receptor Binding Assay ([3H] YM-09151-2, CHO cell membranes). The conditions noted are these: compound 10^−7 M, singlicate, [3H] YM-09151-2 0.15-0.25 nM. An outline of the steps: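 Membranes from CHO cells expressing human D4 receptor incubated with [3H] YM-09151-2 (0.15-0.25 nM) and compound at one concentration (10^−7 M, singlicate) for 120 min at 27° C, then filtered.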

Setting [6] is: [3H]-8-OH-DPAT, CHO membranes, human 5-HT1A, read-out: 5-HT1A Receptor Binding IC50.

T2 sequence (P14842 whole entry): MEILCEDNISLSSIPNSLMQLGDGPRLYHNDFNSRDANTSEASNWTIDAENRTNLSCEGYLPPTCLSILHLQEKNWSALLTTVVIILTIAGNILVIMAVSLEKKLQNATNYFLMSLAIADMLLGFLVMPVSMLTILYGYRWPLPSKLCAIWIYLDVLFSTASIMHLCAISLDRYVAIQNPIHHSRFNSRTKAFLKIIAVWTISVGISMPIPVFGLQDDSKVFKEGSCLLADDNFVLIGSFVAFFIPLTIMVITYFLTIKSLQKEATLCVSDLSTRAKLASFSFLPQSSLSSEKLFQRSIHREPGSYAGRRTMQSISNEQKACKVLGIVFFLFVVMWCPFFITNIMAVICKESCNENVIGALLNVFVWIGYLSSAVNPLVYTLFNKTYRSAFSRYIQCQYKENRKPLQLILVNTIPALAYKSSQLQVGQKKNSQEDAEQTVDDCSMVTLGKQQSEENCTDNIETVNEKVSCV
Chain of 5-HT2A (Mus musculus, UniProt P35363) (P35363 whole entry, looked up): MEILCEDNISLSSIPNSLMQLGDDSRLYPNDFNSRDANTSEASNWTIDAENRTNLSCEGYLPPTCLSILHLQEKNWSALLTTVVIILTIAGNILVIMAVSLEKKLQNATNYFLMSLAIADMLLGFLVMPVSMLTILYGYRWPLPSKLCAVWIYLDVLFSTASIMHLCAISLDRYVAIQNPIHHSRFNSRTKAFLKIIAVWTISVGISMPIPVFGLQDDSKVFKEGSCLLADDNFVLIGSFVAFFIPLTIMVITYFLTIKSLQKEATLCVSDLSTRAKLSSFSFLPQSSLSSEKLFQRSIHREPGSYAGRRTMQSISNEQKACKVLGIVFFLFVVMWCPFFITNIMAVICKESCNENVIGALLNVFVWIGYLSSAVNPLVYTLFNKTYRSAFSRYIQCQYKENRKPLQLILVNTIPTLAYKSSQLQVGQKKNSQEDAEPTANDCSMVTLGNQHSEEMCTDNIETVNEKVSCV

On to `COCCn1c(=O)n(C/C=C/CN2CCN(c3cccc(C(F)(F)F)c3)CC2)c2ccccc21` [Compound 301], for which, in experiment [1] (setting [6]), the IC50 worked out at 2.6 nM. The compound further yielded an inhibition at 10 µM in experiment [2] of 83%.

Regarding `COCCn1c(=O)n(C/C=C\CN2CCN(c3cccc(C(F)(F)F)c3)CC2)c2ccccc21` [Compound 284], the IC50 in experiment [1] (setting [6]) was determined as 4.9 nM. Further, the inhibition at 10 µM in experiment [2] is 82%.

For `Cc1cccc(N2CCN(C/C=C\Cn3c(=O)n(CCNS(C)(=O)=O)c4ccccc43)CC2)c1` [Compound 514], the IC50 in experiment [1] (setting [6]) was 7.9 nM; in experiment [4] it was 74 nM. For the same compound, the “5-HT2A PI Turnover % inhibition” value in experiment [3] was found to be 41%. The compound further displayed an inhibition at 10 µM in experiment [2] of 67%.

Turning to `O=c1n(C/C=C/CN2CCN(c3cccc(C(F)(F)F)c3)CC2)c2ccccc2n1CCO` [Compound 386], in experiment [1] (setting [6]), the half-maximal inhibitory concentration (IC50) stood at 6.7 nM. Testing at 10 µM in experiment [2] gave an inhibition of 82%.

Consider `CS(=O)(=O)NCCn1c(=O)n(C/C=C/CN2CCN(c3cccc(Cl)c3)CC2)c2ccccc21` [Compound 521], for which the IC50 in experiment [1] (setting [6]) was 0.61 nM; in experiment [4] it was 30 nM. Also, the “5-HT2A PI Turnover % inhibition” value in experiment [3] was 48%. Further, at 10 µM the inhibition in experiment [2] was 67%.

Consider `O=c1n(C/C=C/CN2CCN(c3cccc(Cl)c3)CC2)c2ccccc2n1CCO` [Compound 382], for which the inhibition at 0.1 µM was determined as 39% in experiment [5] and 88% in experiment [1] (CHO membranes, human 5-HT1A). Further, the IC50 in experiment [1] (setting [6]) worked out at 11 nM. In experiment [2], this compound had an inhibition at 10 µM of 64%.

Take `CCNC(=O)OCCn1c(=O)n(C/C=C\CN2CCN(c3cccc(C(F)(F)F)c3)CC2)c2ccccc21` [Compound 403]: the half-maximal inhibitory concentration (IC50) in experiment [1] (setting [6]) is 5.5 nM. 10 µM produced 84% inhibition in experiment [2].

As for `CCNC(=O)OCCn1c(=O)n(C/C=C/CN2CC=C(c3ccccc3)CC2)c2ccccc21` [Compound 421], the IC50 in experiment [1] (setting [6]) worked out at 0.66 nM. In experiment [2], this compound yielded an inhibition at 10 µM of 56%.

Turning to `O=c1n(C/C=C/CN2CCN(c3cccc(Cl)c3)CC2)c2ccccc2n1CCN1CCOCC1` [Compound 348], in experiment [1] (setting [6]), the IC50 is 3.5 nM. The same compound gave an inhibition at 10 µM in experiment [2] of 57%.

Turning to `CC(=O)NCCn1c(=O)n(C/C=C/CN2CCN(c3cccc(C(F)(F)F)c3)CC2)c2ccccc21` [Compound 481], in experiment [1] (setting [6]), the IC50 was found to be 11 nM. For the same compound, at 10 µM the inhibition in experiment [2] was 82%.

For the compound `CS(=O)(=O)NCCn1c(=O)n(C/C=C/CN2CCN(c3cccc(C(F)(F)F)c3)CC2)c2ccccc21` [Compound 525], in experiment [1] (setting [6]), the IC50 was 1.5 nM. Further, in experiment [2], at 10 µM the inhibition was 87%.

Turning to `O=c1n(CCN2CCOCC2)c2ccccc2n1CCN1CCN(c2cccc(C(F)(F)F)c2)CC1` [Compound 228], the inhibition at 0.1 µM in experiment [5] is 33%; in experiment [1] (CHO membranes, human 5-HT1A), 95%. The IC50 in experiment [1] (setting [6]) came out at 6 nM. The compound also came in with an inhibition at 10 µM in experiment [2] of 82%.

On to `CCNC(=O)OCCn1c(=O)n(C/C=C\CN2CC=C(c3ccccc3)CC2)c2ccccc21` [Compound 404], for which the inhibition at 0.1 µM in experiment [5] stood at 34%; in experiment [1] (CHO membranes, human 5-HT1A), 95%. In experiment [1] (setting [6]), the IC50 worked out at 2.1 nM. Further, 10 µM produced 60% inhibition in experiment [2].

Consider `CS(=O)(=O)NCCn1c(=O)n(C/C=C\CN2CCN(c3cccc(Cl)c3)CC2)c2ccccc21` [Compound 499], for which, in experiment [1] (setting [6]), the IC50 stood at 5 nM. For the same compound, the inhibition at 10 µM in experiment [2] is 74%.

As for `CCNC(=O)OCCn1c(=O)n(C/C=C/CN2CCN(c3cccc(C(F)(F)F)c3)CC2)c2ccccc21` [Compound 420], in experiment [1] (setting [6]), the IC50 amounted to 1.8 nM. In addition, in experiment [2], the inhibition at 10 µM is 87%.

Regarding `COCCn1c(=O)n(C/C=C\CN2CC=C(c3ccccc3)CC2)c2ccccc21` [Compound 285], the inhibition at 0.1 µM in experiment [5] is 32%; in experiment [1] (CHO membranes, human 5-HT1A), 96%. The compound also registered an IC50 in experiment [1] of 5.2 nM. Further, the inhibition at 10 µM in experiment [2] is 47%.
